Data reported in US4331666A, “3-[(8-Carboxy-6-tetraz olo[1,5-b]pyridazinyl)-thiomethyl]-7-[2-(2-amino-4-thiazolyl)-2-methoxyim ino-acetamido]-3-cephem-4-carboxylic acid” (Farmitalia Carlo Erba S.p.A., priority 1979, dated 1982).
Where two headings read alike, the source gives them in different places.

What was measured:
[1] = test system: streptococci; assay type: cell-based
[2] = test system: Gram-negative bacteria; test: antibacterial activity against most Gram-negative bacteria (compared with Cefazolin and Cefuroxime); assay type: cell-based
[3] = test system: Pseudomonas aeruginosa G.; test: in vitro activity against Pseudomonas aeruginosa G.; assay type: cell-based
[4] = test system: Bacteroides fragilis VPL 9032; test: in vitro activity against Bacteroides fragilis VPL 9032; assay type: cell-based
[5] = test system: mice infected with Escherichia coli G, Klebsiella pneumoniae ATCC 10031, Proteus mirabilis ATCC 9921, Escherichia coli Tem., Haemophilus influenzae Salmonella …; test: in vivo activity in infected mice; details: in words
[6] = approximate acute toxicity (LD50) in the mouse; details: in vivo, single intravenous administrations of increasing doses, measured on the seventh day
Excerpt: The toxicity of the compounds of the invention is quite negligible and therefore they can be safely used in therapy. […] Analogous activity and toxicity data have been found for the other compounds of the invention.

[7] = plasma half-life in the rat after intravenous injection; details: in vivo
[8] = plasma half-life in the mouse after intravenous injection; details: in vivo
[9] = test system: 10 strains of Pseudomonas aeruginosa, 4 strains of Proteus vulgaris and 4 strains of Proteus morganii; test: test on a series of strains of Pseudomonas aeruginosa, Proteus vulgaris and Proteus morganii; assay type: cell-based; details: 10 strains Pseudomonas aeruginosa, 4 strains Proteus vulgaris, 4 strains Proteus morganii

Row | SMILES | times more active than Cefazolin against streptococci [1] | times more active than Cefazolin against most Gram-negative bacteria ([2]; ratio vs Cefazolin) | times more active than Cefuroxime against most Gram-negative bacteria ([2]; ratio vs Cefuroxime) | in vitro activity [3] | in vitro activity [4] | activity in vivo tests [5] | LD50 at 168 h [6] | half-life [7] | half-life [8] | times more active than Cefazolin against streptococci ([1]; ratio vs Cefazolin, streptococci) | times more active than Cefazolin and Cefuroxime against most Gram-negative bacteria ([2]; ratio vs Cefazolin and Cefuroxime) | activity compared with Cefazolin and Cefuroxime [9]
1 | CON=C(C(=O)NC1C(=O)N2C(C(=O)O)=C(CSc3cc(C(=O)O)c4nnnn4n3)CSC12)c1csc(N)n1 (stereo not drawn) [FCE 20485, 3-[(8-carboxy-6-tetrazolo[1,5-b]pyridazinyl)-thiomethyl]-7-[2-(2-amino-4-thiazolyl)-2-methoxyiminoacetamido]-3-cephem-4-carboxylic acid (syn-isomer)] | about 5 times | about 32 times | ~40 times | significant in vitro activity | significant in vitro activity | high activity | > 2000 mg/kg | ~1.67 h | ~1.5 h | – | – | –
2 | CON=C(C(=O)NC1C(=O)N2C(C(=O)O)=C(CSc3cc(N)c4nnnn4n3)CSC12)c1csc(N)n1 (stereo not drawn) [FCE 20127, 3-[(8-amino-6-tetrazolo[1,5-b]pyridazinyl)-thiomethyl]-7-[2-(2-amino-4-thiazolyl)-2-methoxyiminoacetamido]-3-cephem-4-carboxylic acid (syn-isomer)] | – | – | – | – | – | – | – | – | – | about 24 times | about 30 times | several times more active than Cefazolin and Cefuroxime
